pEC50, pIC50, pKi: −log10 of the molar value. Like-named read-outs stand apart in the source and are kept apart here.
Tests used:
[1] = Test 4: metabolic stability test in human hepatic microsome; format: in vitro ADME; details: 0.1 mg/mL microsome, 0.1 μmol/L compound, NADPH, 37° C., 30 minutes
Procedure, shortened: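 Test compound at 0.1 μmol/L incubated 30 min at 37° C with human liver microsomes (0.1 mg/mL) and NADPH (3.2 mmol/L) in 25 mmol/L phosphate buffer, pH 7.4. Residual compound quantified by LC-MS; clearance (mL/min/mg protein) = −LN(residual ratio)/30/0.1.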

[2] = biological target: T1, human 5-HT2A receptor (Homo sapiens (Human), UniProt P28223); experiment: Test 1: binding activity for human 5-HT2A receptor ([3H]Ketanserin); details: CHO cell membrane fraction
T1 sequence (P28223 whole entry): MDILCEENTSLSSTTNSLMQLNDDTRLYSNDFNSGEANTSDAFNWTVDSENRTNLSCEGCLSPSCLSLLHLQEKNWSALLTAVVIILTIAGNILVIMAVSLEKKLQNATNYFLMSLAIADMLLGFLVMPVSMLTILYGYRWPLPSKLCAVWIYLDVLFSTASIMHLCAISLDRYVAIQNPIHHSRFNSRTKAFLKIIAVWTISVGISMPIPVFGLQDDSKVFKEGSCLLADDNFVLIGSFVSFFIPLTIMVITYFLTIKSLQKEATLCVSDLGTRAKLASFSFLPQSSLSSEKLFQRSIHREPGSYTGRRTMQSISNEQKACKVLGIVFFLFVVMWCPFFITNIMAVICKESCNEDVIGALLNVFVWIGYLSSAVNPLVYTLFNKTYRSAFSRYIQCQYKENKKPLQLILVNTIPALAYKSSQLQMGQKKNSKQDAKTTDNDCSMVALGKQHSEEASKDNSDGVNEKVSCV
Description: (§1) Test 1: Evaluation of Binding Activity for Human 5-HT1A Receptor, Human 5-HT2A Receptor, and Human D2 Receptor
(§2) Binding affinity of the present compound for human 5-HT1A receptor, human 5-HT2A receptor, and human D2 receptor was measured by the following procedures.
(§3) Each mixture was incubated at room temperature for 60 minutes. Then, the mixture was added quickly on a glassfiber filter plate (Multiscreen FB, Millipore, Inc.) coated with 0.3% aqueous polyethylenimine, and vacuum-filtered. Radioactivity remaining on the filter was measured with a liquid scintillation counter (PerkinElmer, Inc.). Binding inhibition rate was calculated from the following formula.
(§4) Ki of each compound was calculated from the following formula. Binding inhibition constant (Ki)=IC50/(1+S/Kd) wherein S is concentration of ligand; Kd is a binding dissociation constant of ligand to membrane, which is calculated from a saturated binding experiment conducted with the same cell membrane. A small Ki value means strong binding ability to a receptor.

[3] = biological target: T2, human 5-HT1A receptor (Homo sapiens (Human), UniProt P08908); experiment: Test 2: agonist activity for human 5-HT1A receptor ([35S]GTPγS binding); format: biochemical; details: for Emax at 10 µM: agonist activity in the presence of 10 μM compound, relative to 100 μmol/L 5-HT; for pEC50: [35S]GTPγS binding, CHO cell membrane fraction expressing human 5-HT1A receptor
T2 sequence (P08908 whole entry): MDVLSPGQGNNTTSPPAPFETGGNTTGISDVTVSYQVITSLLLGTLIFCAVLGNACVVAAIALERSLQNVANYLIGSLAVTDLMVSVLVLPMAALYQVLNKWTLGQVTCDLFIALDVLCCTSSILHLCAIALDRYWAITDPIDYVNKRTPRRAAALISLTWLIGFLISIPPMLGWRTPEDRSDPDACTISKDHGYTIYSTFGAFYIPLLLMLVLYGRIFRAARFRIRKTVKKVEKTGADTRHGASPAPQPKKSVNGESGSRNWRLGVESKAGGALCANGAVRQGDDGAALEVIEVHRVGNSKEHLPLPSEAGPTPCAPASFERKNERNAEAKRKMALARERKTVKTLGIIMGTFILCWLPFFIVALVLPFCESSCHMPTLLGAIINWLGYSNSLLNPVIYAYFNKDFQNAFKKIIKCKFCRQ
Description: Test 2: Evaluation of Agonist Activity for Human 5-HT1A Receptor
CHO cell membrane fraction in which human 5-HT1A receptor was expressed as used in Test 1 was purchased. To a buffer containing guanosine diphosphate were added a test compound dissolved in DMSO, each receptor membrane sample diluted with buffer, and [^35S] Guanosine 5′-O-[gamma-thio]triphosphate (GTPγS). The mixture was incubated at room temperature for 60 minutes. Then, the mixture was added quickly on a glassfiber filter plate (Multiscreen FB, Millipore, Inc.), and vacuum-filtered. Radioactivity remaining on the […] was measured with a liquid scintillation counter. Agonist activity was calculated from the following formula.

[4] = biological target: T2, human 5-HT1A receptor; experiment: Test 1: binding activity for human 5-HT1A receptor ([3H]8-OH-DPAT); details: CHO cell membrane fraction
Description: as §1, §2, §3
as §4, with “IC50 value was calculated by Hill analysis (Physiology, 1910, 40, 190-200). Ki of” for “Ki of”

[5] = biological target: hERG channel (Homo sapiens (Human), UniProt Q12809); experiment: Test 6-1: inhibitory activity for hERG channel (auto patch clamp, Qpatch); format: cell-based; details: for pIC50: hERG-CHO cells, whole cell patch clamp, Qpatch, read-out: hERG inhibition IC50
Chain of hERG channel (Q12809 whole entry): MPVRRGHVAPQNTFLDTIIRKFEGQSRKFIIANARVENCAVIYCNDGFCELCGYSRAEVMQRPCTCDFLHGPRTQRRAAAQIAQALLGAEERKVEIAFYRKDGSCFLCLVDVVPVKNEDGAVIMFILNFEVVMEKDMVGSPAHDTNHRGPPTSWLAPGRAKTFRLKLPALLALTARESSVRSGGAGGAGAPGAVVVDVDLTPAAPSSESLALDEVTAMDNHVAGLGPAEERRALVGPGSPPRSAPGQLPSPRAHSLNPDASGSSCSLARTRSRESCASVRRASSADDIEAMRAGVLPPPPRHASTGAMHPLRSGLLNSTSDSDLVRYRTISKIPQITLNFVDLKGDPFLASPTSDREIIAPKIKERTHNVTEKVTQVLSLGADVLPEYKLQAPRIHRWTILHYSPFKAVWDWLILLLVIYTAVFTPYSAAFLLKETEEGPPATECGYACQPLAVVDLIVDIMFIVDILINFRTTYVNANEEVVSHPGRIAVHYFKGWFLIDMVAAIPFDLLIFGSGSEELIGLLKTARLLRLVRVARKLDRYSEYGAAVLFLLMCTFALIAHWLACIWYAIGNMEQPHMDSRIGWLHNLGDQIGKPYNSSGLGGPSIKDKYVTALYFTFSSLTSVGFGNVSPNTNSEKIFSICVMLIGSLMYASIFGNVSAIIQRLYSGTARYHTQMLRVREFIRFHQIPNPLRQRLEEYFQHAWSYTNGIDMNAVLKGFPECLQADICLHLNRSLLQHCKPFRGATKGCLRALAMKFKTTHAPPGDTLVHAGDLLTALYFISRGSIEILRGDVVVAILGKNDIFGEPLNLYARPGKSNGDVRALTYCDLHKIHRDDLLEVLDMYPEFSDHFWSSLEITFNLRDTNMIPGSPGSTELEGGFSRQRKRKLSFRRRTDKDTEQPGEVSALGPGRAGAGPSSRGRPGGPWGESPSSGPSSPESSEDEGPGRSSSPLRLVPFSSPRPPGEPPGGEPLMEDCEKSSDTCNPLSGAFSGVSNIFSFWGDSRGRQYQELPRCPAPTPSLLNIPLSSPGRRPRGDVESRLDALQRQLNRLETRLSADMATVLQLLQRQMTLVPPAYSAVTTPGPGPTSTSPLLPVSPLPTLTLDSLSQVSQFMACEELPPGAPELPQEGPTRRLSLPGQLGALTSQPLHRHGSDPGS
Description: Test 6-1: Evaluation of Inhibitory Activity for hERG Channel
Inhibitory activity of the present compound for hERG channel was measured by whole cell patch clamp method with an auto patch clamp system using CHO cells in which hERG channel involved in human rapidly activating delayed rectifier potassium current (IKr) was forcibly expressed.
hERG-CHO cells purchased from ChanTest Cop. were cultured in a CO2 incubator at 37° C., and dissociated from a flask with trypsin shortly before the measurement of hERG current, to prepare a cell suspension.
Extracellular and intracellular fluid used in the measurement were prepared as follows.
Extracellular fluid: 2 mmol/L CaCl2, 1 mmol/L MgCl2, 10 mmol/L HEPES, 4 mmol/L KCl, 145 mmol/L NaCl, 10 mmol/L Glucose
Intracellular fluid: 5.4 mmol/L CaCl2, 1.8 mmol/L MgCl2, 10 mmol/L HEPES, 31 mmol/L KOH, 10 mmol/L EGTA, 120 mmol/L KCl, 4 mmol/L Na2-ATP
Test compound solution: Test compound was dissolved in DMSO to reach the concentration of 2 mmol/L or 20 mmol/L, in order to prepare a test compound solution. […] (Measurement of Current Value and Data Analysis)
The cell suspension, the extracellular fluid, the intracellular fluid, and the measurement plate were set in the auto patch clamp system, and hERG current was measured by whole cell patch clamp method. […] Each pulse interval was 15 seconds. The data analysis was carried out with Qpatch Assay Software (Biolin Scientific). The test was carried out by applying incrementally 4 concentrations of each test compound, and the average of the maximum peak tail currents which were obtained from the last 3 stimulations in each concentration was determined as the evaluated data. Based on the current inhibition rate for a pre-applied current at each concentration of each test compound, IC50 value was calculated by Hill equation with the software.

[6] = biological target: human D2 receptor (Homo sapiens (Human), UniProt P14416); experiment: Test 1: binding activity for human D2 receptor ([3H]Spiperone); details: for pKi: CHO cell membrane fraction, [3H]Spiperone; for D2 Ki/5-HT1A Ki: ratio of D2 Ki to 5-HT1A Ki; for D2 Ki/5-HT2A Ki: ratio of D2 Ki to 5-HT2A Ki
Chain of human D2 receptor (P14416 whole entry): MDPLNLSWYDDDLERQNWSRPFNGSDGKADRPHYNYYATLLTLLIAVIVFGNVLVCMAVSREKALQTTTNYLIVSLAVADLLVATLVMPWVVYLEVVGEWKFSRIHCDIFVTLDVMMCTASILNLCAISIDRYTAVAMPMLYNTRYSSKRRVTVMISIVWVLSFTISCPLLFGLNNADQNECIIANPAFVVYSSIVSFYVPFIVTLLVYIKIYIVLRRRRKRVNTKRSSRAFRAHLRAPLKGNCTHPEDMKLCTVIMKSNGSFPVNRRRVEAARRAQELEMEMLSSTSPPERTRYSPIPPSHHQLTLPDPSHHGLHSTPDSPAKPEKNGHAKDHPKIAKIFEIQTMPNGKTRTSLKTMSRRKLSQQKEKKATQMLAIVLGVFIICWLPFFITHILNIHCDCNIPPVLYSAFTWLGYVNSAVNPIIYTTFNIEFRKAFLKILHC
Description: as §1, §2, §3, §4

[7] = Test 10: intracerebral transferability of rats (Kp,uu,brain); format: in vivo, SD or WKY rats; details: rat, brain and plasma, unbound drug concentration ratio brain/plasma, s.c. or oral, 0.5, 1 or 2 hours
Description: Test 10: Evaluation of Intracerebral Transferability (Test for Intracerebral Transferability of Rats)
In this test, intracerebral transferability of the present compounds was evaluated by the following method. The present compounds were subcutaneously administered as a solution in saline, or orally administered as a suspension in methyl cellulose to 7-week-old SD or WKY rats. Plasma and brain were collected on 0.5 hours, 1 hour, or 2 hours after the administration to measure the drug concentrations in plasma and brain by LC-MS.
Binding rates of the present compound to plasma and brain protein were measured by equilibrium dialysis method.
Kp,uu,brain (unbound drug concentration ratio between brain/plasma) can be calculated by applying the compound concentrations in plasma and brain and the binding rates to plasma and brain protein obtained from the above test into the following formula. Kp,uu,brain=(Compound concentration in brain×(100−Binding rate to brain protein (%))/100)/(Compound concentration in plasma×(100−Binding rate to plasma protein (%))/100)

[8] = biological target: P-gp (MDR1) (Homo sapiens (Human), UniProt P08183); experiment: Test 9: P-gp substrate property (NFR, MDCKII and MDR1-MDCKII cells); format: in vitro ADME; details: ratio of Papp B-A/Papp A-B in MDR1-MDCKII cells to that in MDCKII cells
Chain of P-gp (MDR1) (P08183 whole entry, species assumed): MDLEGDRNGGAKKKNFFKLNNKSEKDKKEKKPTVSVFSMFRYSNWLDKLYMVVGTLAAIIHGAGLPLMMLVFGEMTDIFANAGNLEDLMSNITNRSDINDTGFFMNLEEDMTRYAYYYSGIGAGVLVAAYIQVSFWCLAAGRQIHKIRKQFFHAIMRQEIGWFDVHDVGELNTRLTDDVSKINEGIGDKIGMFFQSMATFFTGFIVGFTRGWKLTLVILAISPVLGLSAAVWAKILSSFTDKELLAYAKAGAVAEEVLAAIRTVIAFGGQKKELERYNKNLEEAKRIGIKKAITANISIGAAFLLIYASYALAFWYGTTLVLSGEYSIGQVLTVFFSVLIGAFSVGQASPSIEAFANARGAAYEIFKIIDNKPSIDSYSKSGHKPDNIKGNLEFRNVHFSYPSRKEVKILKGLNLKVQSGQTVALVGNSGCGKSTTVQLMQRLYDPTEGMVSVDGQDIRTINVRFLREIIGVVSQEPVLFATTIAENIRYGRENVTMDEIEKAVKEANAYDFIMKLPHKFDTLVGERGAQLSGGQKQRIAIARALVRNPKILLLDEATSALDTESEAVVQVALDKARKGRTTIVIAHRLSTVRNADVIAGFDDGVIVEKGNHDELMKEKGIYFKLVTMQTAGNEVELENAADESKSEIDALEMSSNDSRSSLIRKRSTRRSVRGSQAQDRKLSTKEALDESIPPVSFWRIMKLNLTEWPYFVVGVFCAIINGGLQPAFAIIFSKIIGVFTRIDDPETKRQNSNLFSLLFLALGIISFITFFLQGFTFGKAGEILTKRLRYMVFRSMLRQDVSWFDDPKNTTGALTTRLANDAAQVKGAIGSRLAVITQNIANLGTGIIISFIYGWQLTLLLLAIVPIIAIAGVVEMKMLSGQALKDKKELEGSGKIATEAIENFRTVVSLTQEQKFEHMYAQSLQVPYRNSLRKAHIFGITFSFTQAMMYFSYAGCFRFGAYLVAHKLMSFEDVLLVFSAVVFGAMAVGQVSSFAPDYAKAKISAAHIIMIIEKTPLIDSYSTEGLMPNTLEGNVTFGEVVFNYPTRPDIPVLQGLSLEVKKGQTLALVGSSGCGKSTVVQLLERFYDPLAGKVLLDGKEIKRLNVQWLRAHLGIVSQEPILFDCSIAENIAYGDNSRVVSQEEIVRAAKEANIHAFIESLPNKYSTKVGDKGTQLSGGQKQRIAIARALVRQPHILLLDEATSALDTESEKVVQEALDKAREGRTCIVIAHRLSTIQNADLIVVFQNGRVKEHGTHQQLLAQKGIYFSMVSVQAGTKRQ
Description: Evaluation test for binding was carried out as follows with the CHO cell membrane fraction in which human target receptor was expressed. […] Each mixture was incubated at room temperature, added quickly on a glassfiber filter plate (Multiscreen FB, Millipore, Inc.), and vacuum-filtered. Radioactivity remaining on the filter was measured with a liquid scintillation counter (PerkinElmer, Inc.). Binding inhibition rate was calculated from the following formula.
NFR (Net Flux Ratio), which is an index of P-gp substrate property, can be calculated as follows. MDCKII (Madin-Darby canine kidney strain II) cells and MDR1-MDCKII cells in which MDR1 (multidrug resistance protein 1) was overexpressed were used to measure an apparent permeability coefficient (Papp A-B) from lumen (A) to basement membrane (B) and an apparent permeability coefficient (Papp B-A) from basement membrane (B) to lumen (A) of both MDCKII cells and MDR1-MDCKII cells. NFR (Net Flux Ratio) was calculated from the ratio between Ratio (Papp B-A/Papp A-B) of an apparent permeability coefficient of MDR1-MDCKII cells and Ratio of an apparent permeability coefficient of MDCKII cells.

[9] = biological target: T1, human 5-HT2A receptor; experiment: Test 3: antagonist activity for human 5-HT2A receptor (aequorin luminescence, CHO-K1 cells); format: cell-based
Description: Test 3: Evaluation of Antagonist Activity for Human 5-HT2A Receptor
Aequorin, Gα16 protein, and each receptor were transiently expressed in CHO-K1 cells (Chinese hamster ovary). […] Each compound dissolved in DMSO was added thereto, and changes in luminescence were measured by FDSS/μCELL functional drug screening system (Hamamatsu Photonics K.K.). Antagonist activity was calculated from the following formula.
Antagonist activity (%)=100×{(Luminescence of well in the presence of 1 nmol/L 5-HT−Luminescence of well containing solvent)−(Luminescence of well in the presence of test compound and 1 nmol/L 5-HT−Luminescence of well containing solvent)}/(Luminescence of well in the presence of 1 nmol/L 5-HT−Luminescence of well containing solvent)

## O=C1c2cnccc2CCN1CCN1CCC(c2noc3ccccc23)CC1 [Example 13]
[1]
  Metabolic stability in human hepatic microsome: <0.01 mL/min/mg protein
[2]
  pKi: 8.08
[3]
  Emax at 10 µM: 56%

## Cc1cc2c(cn1)C(=O)N(CCN1CCC(c3noc4ccccc34)CC1)CC21CC1 [Example 21]
[4]
  pKi: 8.06
[1]
  Metabolic stability in human hepatic microsome: 0.323 mL/min/mg protein
[5]; human, CHO cells expressing hERG channel
  pIC50: 5.10
[3]
  Emax at 10 µM: 59%
[6]
  pKi: 5.67

## Cc1nc2c(o1)C(=O)N(CCN1CCC(c3noc4ccccc34)CC1)CC2 [Example 35, 5-{2-[4-(1,2-Benzoisoxazol-3-yl)piperidin-1-yl]ethyl}-2-methyl-6,7-dihydro[1,3]oxazolo[5,4-c]pyridin-4(5H)-one]
[1]
  Metabolic stability in human hepatic microsome: <0.01 mL/min/mg protein
[7]
  Kp uu at 2 h: 1.44

## Cn1cc2c(n1)CCN(CCN1CCN(c3nsc4ccccc34)CC1)C2=O [Example 36, 5-{2-[4-(1,2-Benzoisothiazol-3-yl)piperazin-1-yl]ethyl}-2-methyl-2,5,6,7-tetrahydro-4H-pyrazolo[4,3-c]pyridin-4-one]
[8]
  NFR (Net Flux Ratio): 1.8
[1]
  Metabolic stability in human hepatic microsome: 0.085 mL/min/mg protein
[7]
  Kp uu at 2 h: 0.08

## Cn1ncc2c1CCCN(CCN1CCC(c3noc4ccccc34)CC1)C2=O [Example 43]
[8]
  NFR (Net Flux Ratio): 2.2
[1]
  Metabolic stability in human hepatic microsome: <0.01 mL/min/mg protein
[7]
  Kp uu at 2 h: 0.18

## Cc1ccc2c(C3CCN(CCn4ccc5cccnc5c4=O)CC3)noc2c1 [Example 118]
[4]
  pKi: 7.14
[2]
  pKi: 8.00
[3]
  Emax at 10 µM: 5%
[6]
  pKi: 6.56
  D2 Ki/5-HT1A Ki: 3.8
  D2 Ki/5-HT2A Ki: 27.6

## O=C1c2ncccc2CCN1CCN1CCC(c2noc3cc(F)c(F)cc23)CC1 [Example 148]
[9]; at 10 μM
  5-HT2A antagonist activity: 45% at 10 μM

## COc1ncc2c(n1)CCN(CCN1CCN(c3noc4ccccc34)CC1)C2=O [Example 179]
[4]
  pKi: 6.55
[1]
  Metabolic stability in human hepatic microsome: <0.05 mL/min/mg protein
[2]
  pKi: 7.64
[5]
  pIC50: < 5.00
[5]; ratio of hERG IC50 to 5-HT1A Ki
  hERG inhibition IC50 (nmol/L)/5-HT1A Ki (nmol/L): >35
[5]; ratio of hERG IC50 to 5-HT2A Ki
  hERG inhibition IC50 (nmol/L)/5-HT2A Ki (nmol/L): >438
[6]
  pKi: < 5.00
  D2 Ki/5-HT1A Ki: >35.3
  D2 Ki/5-HT2A Ki: >437.6

## COc1ccc2c(n1)C(=O)N(CCN1CCN(c3noc4ccccc34)CC1)CC2 [Example 186]
[4]
  pKi: 7.78
[1]
  Metabolic stability in human hepatic microsome: 0.095 mL/min/mg protein
[5]
  pIC50: 5.70
[3]
  pEC50: 7.01
  Emax at 10 µM: 39%
[6]
  pKi: 5.89

## COc1ccc2c(n1)C(=O)N(CCN1CCC(c3noc4ccccc34)CC1)CC2 [Example 187]
[9]; CHO-K1 cells, aequorin/Gα16, 1 nmol/L 5-HT
  pIC50: 7.05
[4]
  pKi: 8.80
[1]
  Metabolic stability in human hepatic microsome: <0.05 mL/min/mg protein
[2]
  pKi: 7.84
[3]
  pEC50: 7.42
  Emax at 10 µM: 55%
